Entries after “also recorded” stand apart in the source; their conditions may differ.
Assays:
HSV-2 [1] = assay: In vivo mouse bioassay: intravaginal HSV-2 infection, topical treatment; design: species or system HSV-2 strain 333 in female Swiss Webster mice; key to Max. Lesion Score: 0: no clinical signs of vaginal infection; ±: slight perivaginal redness; perivaginal redness and swelling of 1-2 mm; perivaginal redness and swelling of 2-3 mm; perivaginal and perianal redness and swelling of 3-4 mm; perivaginal and perianal redness and swelling of 4 mm or more, with exudate; details: for # Infected, Day 14 / # of Deaths, Day 14: 10 animals/group
HSV-2 [2] = assay: Separate experiments: speed of virus inhibition by DHA
herpes virus type 2 = assay: Guinea pig bioassay: intravaginal HSV-2 infection, topical treatment; assay type: in vivo; design: key to MVL Score Day 5 / MVL Score Day 6 / MVL Score Day 7 / MVL Score Day: lesion severity scored on 0 to 4 scale; details: for MVL Scores Days 5-8: 0 to 4 scale; for Infected, Treated Surv/Total: 28 days; for MVL Score Day: last day; for reduction in lesion scores, in words: guinea pigs, topical
Description: In both studies, DHA was compared with ACV in a controlled study for effectiveness in reducing the occurrence and the severity of lesions resulting from infection by HSV-2 and in reducing mortality resulting from the virus infection.
Using substantially the procedures of Pancic et al., loc. cit., the topical activity of DHA, a representative and preferred virucide for use in the present method, was evaluated in mice and in guinea pigs. Both evaluations included comparative testing against ACV and the mouse tests included a comparison of two different vehicles.
A blind comparative test was carried out on guinea pigs using coded substances labeled A through D. The testers were told only that one of the four substances was ACV, that the other three coded samples were the same material, in concentrations of 0.1, 1.0 and 10 mg/ml, and that all four samples were formulated in a polyethylene glycol 1000 (PEG-1000) vehicle. A separate sample of the PEG-1000 was also submitted to serve as a placebo for treating virus control animals. The materials and experimental protocol is shown below.
Animals. Female Hartley strain albino guinea pigs weighing about 450-500 g were used. The animals were quarantined 24 hr prior to use in this study, and maintained 5 to a 32"×32"×9" stainless steel cage on Wayne guinea pig diet and water ad libitum.
Virus. Strain E194 of herpes virus type 2 was used. […] The virus was held at -90° C. until used.
Drugs. The substances tested consisted of four bottles labelled "A", "B", "C", and "D" with no identifying key. The samples were: A, 0.1 mg/ml DHA (0.003 mmol/ml); B, 5% w/w ACV (0.22 mmol/ml); C, 1 mg/ml DHA (0.03 mmol/ml); and D, 10 mg/ml DHA ([…]). […] All were treated as light-sensitive compounds.
Experimental Protocol. The guinea pigs were infected by applying a virus-soaked swab intravaginally, with agitation, for 20 seconds. […] Treatment began 20 hr later, with the compound or placebo applied topically intravaginally, perivaginally, and perianally using cotton swabs soaked in the respective substance. Treatment continued three times daily (8 a.m., noon, 4 p.m.) for 7 days. Ten infected animals were used for each coded substance, with twenty used for virus controls. Five sham-infected animals were concomitantly treated with each coded substance to serve as toxicity controls. Two guinea pigs were held separately to serve as normal untreated controls.
On days 5 through 8 post-virus inoculation, the genital area was carefully examined and signs of irritation in the toxicity controls and lesion severity in injected animals was scored on a 0 to 4 scale using the same scale as in the mouse bioassay. The results were scored as average daily lesion (ADL) scores for each group, and as mean vaginal lesion (MVL) scores, calculated as the mean of the ADL scores for days 5-8. The maximum mean score for the toxicity control animals was also determined.
On day 6 prior to the 8 a.m. treatment, intravaginal and perivaginal areas of each infected guinea pig were uniformly swabbed with sterile cotton swabs. The swab for each animal was placed in 1.0 ml of sterile Eagles minimum essential medium and immediately frozen at -90° C.; several days later all were thawed and each swab-containing sample vortexed for 15 seconds and then the sample was diluted through a series of 10-fold dilutions in sterile medium. Each dilution was assayed for virus in triplicate by adding 0.1 ml to an established monolayer of MA-104 cells in 96-well disposable plastic microplates. The plates were sealed, incubated at 72 hr at 37° C., and virus-induced cytopathic effect noted microscopically.
Data Analysis. Increases in survivors were analyzed using chi square analysis with Yate's correction. Mean survival times (MST) of animals dying on or before […] were determined for each group, and evaluated using the t test.

[3] = Visually observed solubility in DMSO-HBSS; assay type: physicochemical; details: 1 mg in 1 ml of 70% DMSO-30% HBSS
Description: Vehicles. […] The DMSO-HBSS vehicle was selected based on the observed (visually) solubility of DHA in various DMSO-HBSS solutions. 1 mg DHA was soluble in 1 ml of 70% DMSO-30% HBSS.

[4] = C: 1 mg/ml DHA in PEG-1000, P < 0.05
[5] = D: 10 mg/ml DHA in PEG-1000, P < 0.05

## CCC=CCC=CCC=CCC=CCC=CCC=CCCC(=O)O [DHA, 4,7,10,13,16,19 Docosahexaenoic Acid]
HSV-2 [1]; DMSO & High DHA (10 mg/ml)
  % Mortality: 20%
  Day of Maximum % Morbidity: 7 days
  Maximum % Morbidity: 40%
  Mean Day of Death: 8.5 days
HSV-2 [1]; DMSO & Low DHA (1 mg/ml)
  % Mortality: 30%
  Day of Maximum % Morbidity: 7 days
  Maximum % Morbidity: 40%
  Mean Day of Death: 11.7 days
HSV-2 [1]; High DHA 10 mg/ml in DMSO
  # Infected, Day 14: 4
  # of Deaths, Day 14: 2
HSV-2 [1]; High DHA 10 mg/ml in PEG
  # Infected, Day 14: 5
  # of Deaths, Day 14: 3
HSV-2 [1]; Low DHA 1 mg/ml in DMSO
  # Infected, Day 14: 4
  # of Deaths, Day 14: 2
HSV-2 [1]; Low DHA 1 mg/ml in PEG
  Max. Lesion Score: ±
  # Infected, Day 14: 1
  # of Deaths, Day 14: 0
HSV-2 [1]; Ointment & High DHA (10 mg/ml)
  % Mortality: 30%
  Day of Maximum % Morbidity: 7 days
  Maximum % Morbidity: 50%
  Mean Day of Death: 11.7 days
HSV-2 [1]; Ointment & Low DHA (1 mg/ml)
  % Mortality: 0%
  Day of Maximum % Morbidity: 6 days
  Maximum % Morbidity: 10%
  Mean Day of Death: > 14 days
HSV-2 [1]; topical, HSV-2 infected mice
  efficacy in mice in words: effective virucidal activity against HSV-2, especially the low dose ointment preparation; also recorded: highly effective in comparison with ACV in reducing lesions and in reducing mortality rates in mice; also recorded: a low dose of DHA in the particular ointment vehicle used for test purposes appeared to have a higher activity than a high dose of the same material in the same vehicle
HSV-2 [2]; within 30 seconds of contact
  virus inhibited: more than 98%
HSV-2 [2]; within 30 minutes of contact
  virus inhibited: > 99.99%
Herpes virus type 2; A: 0.1 mg/ml DHA in PEG-1000
  MST (mean survival time): 12.3 days
  MVL Score Day 5: 2.4
  MVL Score Day 6: 3.0
  MVL Score Day 7: 3.5
  MVL Scores Days 5-8: 3.2
  Infected, Treated Surv/Total: 6/10
  MVL Score Day: 3.8
Herpes virus type 2; C: 1 mg/ml DHA in PEG-1000
  MST (mean survival time): 13.3 days
  MVL Score Day 5: 1.7
  MVL Score Day 7: 2.8
  Infected, Treated Surv/Total: 4/10
  MVL Score Day: 3.1
Herpes virus type 2; [4]
  MVL Scores Days 5-8: 2.4
  MVL Score Day 6: 2.3
Herpes virus type 2; D: 10 mg/ml DHA in PEG-1000
  MST (mean survival time): 16.5 days
  MVL Score Day 7: 3.0
  Infected, Treated Surv/Total: 8/10
  MVL Score Day: 3.1
Herpes virus type 2; [5]
  MVL Scores Days 5-8: 2.4
  MVL Score Day 5: 1.5
  MVL Score Day 6: 2.1
Herpes virus type 2
  reduction in lesion scores, in words: neither ACV nor the lowest dosage of DHA were able to achieve a statistically significant reduction in lesion scores
Herpes virus type 2; listed as C
  reduction in lesion scores, in words: statistically significant reductions in lesion scores
Herpes virus type 2; listed as D
  reduction in lesion scores, in words: statistically significant reductions in lesion scores
[3]
  solubility: soluble

Source: US4513008A, “Virucidal compositions and therapy” (The Vinoxen Company, Inc., priority 1982, dated 1985)
